The text below walks through data of PubChem BioAssay (NCI).

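Where inhibition never reached the appropriate level, the endpoint shown equals the highest concentration tested. Otherwise, values were interpolated linearly from a five-concentration, 48-hour dose response in 96-well plates. GI50 = concentration required for 50% inhibition of growth. TGI denotes the concentration required for complete inhibition of growth.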

The subject of one assay is HL-60(TB) leukemia. The experiment in a line: NCI anticancer screen, dose series, 48 h.
Take `O=C1c2c(c3c4ccccc4[nH]c3c3ccc4ccccc4c23)C(=O)N1CCN1CCNCC1`: the GI50 was 1.61 µM and the TGI was determined as 3.5 µM.
`COc1cc2c(c(OC)c1OC)-c1ccc(SC)c(=O)cc1C(NC(=O)c1ccccc1)CC2` (stereo not given): the TGI is less than 0.0127 µM.
Turning to `O=C1CCC(N2Cc3cc(CNC(=O)C(F)(F)c4ccc(Cl)cc4)ccc3C2=O)C(=O)N1` (stereo not given), the GI50 was less than 0.01 µM and the TGI is 0.03 µM.
Taken in the same sequence, the figures for `O=C(O)CN1CCN(CC(=O)O)CC(=O)[O][Hg][O]C(=O)C1` were 13.7 µM and 34.7 µM.
Taken in the same sequence, the figures for `O=C1/C(=C/c2ccccc2[N+](=O)[O-])Cc2ccccc21` were 2.85 µM and 7.12 µM.
Consider `O=C(OCc1ccc2ccccc2n1)c1cn(C2CC2)c2cc(N3CCN(Cc4ccc5ccccc5n4)CC3)c(F)cc2c1=O`, for which the GI50 is more than 100 µM and the TGI was more than 100 µM.
In turn, `O=C(O)c1ccc(C(=O)c2ccccc2)c(C(=O)O)c1` displayed a TGI of more than 100 µM.
`Cc1ccc(/C=N\NC(=O)c2[nH]c3ccc(F)cc3c2-c2ccccc2)cc1`: the GI50 was 0.0291 µM and the TGI was determined as 0.121 µM.

In the next assay the test system is HOP-62 NSCLC. The experiment in a line: NCI anticancer screen, dose series, 48 h.
With `O=C1c2c(c3c4ccccc4[nH]c3c3ccc4ccccc4c23)C(=O)N1CCN1CCNCC1`, the GI50 is 1.81 µM and the TGI stood at 3.69 µM.
As to `COc1cc2c(c(OC)c1OC)-c1ccc(SC)c(=O)cc1C(NC(=O)c1ccccc1)CC2` (stereo not given), the TGI worked out at 21.1 µM.
For `O=C1CCC(N2Cc3cc(CNC(=O)C(F)(F)c4ccc(Cl)cc4)ccc3C2=O)C(=O)N1` (stereo not given), the GI50 is 3.02 µM and the TGI is more than 100 µM.
For `O=C(O)CN1CCN(CC(=O)O)CC(=O)[O][Hg][O]C(=O)C1` the same measures were 25.1 µM and more than 66.2 µM.
For `O=C1/C(=C/c2ccccc2[N+](=O)[O-])Cc2ccccc21` the same measures were 3 µM and 17.2 µM.
Taken in the same sequence, the figures for `O=C(OCc1ccc2ccccc2n1)c1cn(C2CC2)c2cc(N3CCN(Cc4ccc5ccccc5n4)CC3)c(F)cc2c1=O` were more than 53.8 µM and more than 95.2 µM.
As to `O=C(O)c1ccc(C(=O)c2ccccc2)c(C(=O)O)c1`, the TGI is more than 100 µM.
Consider `Cc1ccc(/C=N\NC(=O)c2[nH]c3ccc(F)cc3c2-c2ccccc2)cc1`, for which the GI50 was 0.0422 µM and the TGI came to 5.88 µM.

The subject of a further assay is PC-3 prostate. The experiment in a line: NCI anticancer screen, dose series, 48 h.
Turning to `O=C1c2c(c3c4ccccc4[nH]c3c3ccc4ccccc4c23)C(=O)N1CCN1CCNCC1`, the GI50 is 1.68 µM and the TGI came to 3.67 µM.
The compound `COc1cc2c(c(OC)c1OC)-c1ccc(SC)c(=O)cc1C(NC(=O)c1ccccc1)CC2` (stereo not given) registered a TGI of more than 31.6 µM.
`O=C1CCC(N2Cc3cc(CNC(=O)C(F)(F)c4ccc(Cl)cc4)ccc3C2=O)C(=O)N1` (stereo not given): the GI50 was 4.71 µM and the TGI was more than 100 µM.
As to `O=C(O)CN1CCN(CC(=O)O)CC(=O)[O][Hg][O]C(=O)C1`, the GI50 was 16.5 µM and the TGI was 30.5 µM.
For `O=C1/C(=C/c2ccccc2[N+](=O)[O-])Cc2ccccc21` the same measures were 1.83 µM and 5.33 µM.
As for `O=C(OCc1ccc2ccccc2n1)c1cn(C2CC2)c2cc(N3CCN(Cc4ccc5ccccc5n4)CC3)c(F)cc2c1=O`, the GI50 is more than 44.6 µM and the TGI was more than 80.2 µM.
`O=C(O)c1ccc(C(=O)c2ccccc2)c(C(=O)O)c1` gave a TGI of more than 100 µM.
Consider `Cc1ccc(/C=N\NC(=O)c2[nH]c3ccc(F)cc3c2-c2ccccc2)cc1`, for which the GI50 was 0.0345 µM and the TGI is 20.6 µM.

A further assay relates to OVCAR-3 ovarian. The assay is described as follows: NCI anticancer screen, dose series, 48 h.
As for `O=C1c2c(c3c4ccccc4[nH]c3c3ccc4ccccc4c23)C(=O)N1CCN1CCNCC1`, the GI50 is 1.83 µM and the TGI was 3.48 µM.
`COc1cc2c(c(OC)c1OC)-c1ccc(SC)c(=O)cc1C(NC(=O)c1ccccc1)CC2` (stereo not given) came in with a TGI of less than 0.01 µM.
Consider `O=C1CCC(N2Cc3cc(CNC(=O)C(F)(F)c4ccc(Cl)cc4)ccc3C2=O)C(=O)N1` (stereo not given), for which the GI50 is more than 100 µM and the TGI is more than 100 µM.
`O=C(O)CN1CCN(CC(=O)O)CC(=O)[O][Hg][O]C(=O)C1`: the GI50 is 16.9 µM and the TGI amounted to 30.6 µM.
Consider `O=C1/C(=C/c2ccccc2[N+](=O)[O-])Cc2ccccc21`, for which the GI50 is 1.72 µM and the TGI was 3.2 µM.
Regarding `O=C(OCc1ccc2ccccc2n1)c1cn(C2CC2)c2cc(N3CCN(Cc4ccc5ccccc5n4)CC3)c(F)cc2c1=O`, the GI50 was 44.9 µM and the TGI is more than 100 µM.
`O=C(O)c1ccc(C(=O)c2ccccc2)c(C(=O)O)c1` yielded a TGI of more than 100 µM.
For `Cc1ccc(/C=N\NC(=O)c2[nH]c3ccc(F)cc3c2-c2ccccc2)cc1`, the GI50 is 0.0261 µM and the TGI was found to be 0.0782 µM.

The next assay has as its system SF-539 CNS. The assay is described as follows: NCI anticancer screen, dose series, 48 h.
For `O=C1c2c(c3c4ccccc4[nH]c3c3ccc4ccccc4c23)C(=O)N1CCN1CCNCC1`, the GI50 was 1.68 µM and the TGI worked out at 3.06 µM.
With `COc1cc2c(c(OC)c1OC)-c1ccc(SC)c(=O)cc1C(NC(=O)c1ccccc1)CC2` (stereo not given), the TGI amounted to 0.0922 µM.
Consider `O=C1CCC(N2Cc3cc(CNC(=O)C(F)(F)c4ccc(Cl)cc4)ccc3C2=O)C(=O)N1` (stereo not given), for which the GI50 was more than 100 µM and the TGI is more than 100 µM.
As to `O=C(O)CN1CCN(CC(=O)O)CC(=O)[O][Hg][O]C(=O)C1`, the GI50 was 60.1 µM and the TGI was more than 100 µM.
For `O=C1/C(=C/c2ccccc2[N+](=O)[O-])Cc2ccccc21` the same measures were 2.15 µM and 5.94 µM.
Regarding `O=C(OCc1ccc2ccccc2n1)c1cn(C2CC2)c2cc(N3CCN(Cc4ccc5ccccc5n4)CC3)c(F)cc2c1=O`, the GI50 is 21.2 µM and the TGI came out at 58 µM.
In the case of `O=C(O)c1ccc(C(=O)c2ccccc2)c(C(=O)O)c1`, the TGI is more than 100 µM.
`Cc1ccc(/C=N\NC(=O)c2[nH]c3ccc(F)cc3c2-c2ccccc2)cc1`: the GI50 is 0.0297 µM and the TGI worked out at 0.965 µM.
